Consider 59 compounds from BindingDB's records for doi:10.7270/Q2TX3CTT (Broad Institute, 2010).

For the assay, the target named is Glycogen synthase kinase-3 beta (Homo sapiens, UniProt P49841). Briefly: GSK3beta kinase inhibitor potency, dose response, biochemical, luminescence, cell-free homogeneous, retest (AID 434954).
Sequence of Glycogen synthase kinase-3 beta (P49841 whole entry): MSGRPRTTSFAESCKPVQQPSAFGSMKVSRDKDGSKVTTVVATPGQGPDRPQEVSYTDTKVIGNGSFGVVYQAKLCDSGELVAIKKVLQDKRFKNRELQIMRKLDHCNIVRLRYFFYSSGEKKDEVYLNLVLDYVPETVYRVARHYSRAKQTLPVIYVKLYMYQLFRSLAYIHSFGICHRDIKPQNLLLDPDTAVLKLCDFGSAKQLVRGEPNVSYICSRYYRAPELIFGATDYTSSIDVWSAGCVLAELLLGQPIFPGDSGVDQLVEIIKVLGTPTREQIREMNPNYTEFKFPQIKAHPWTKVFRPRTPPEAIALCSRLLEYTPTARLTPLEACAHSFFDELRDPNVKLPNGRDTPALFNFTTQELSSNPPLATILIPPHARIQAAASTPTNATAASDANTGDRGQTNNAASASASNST
The EC50 is the concentration that produces a half-maximal response. On to `COCCN1C(=O)N[C@@H](c2cccc(C(F)(F)F)c2)[C@H](C(C)=O)[C@H]1C` [(4R,5S,6R)-5-acetyl-1-(2-methoxyethyl)-6-methyl-4-[3-(trifluoromethyl)phenyl]-1,3-diazinan-2-one], for which the EC50 was above 300 µM.
`CCOC(=O)c1nnn(-c2nonc2N)c1CSc1ccccc1` [ethyl 1-(4-amino-1,2,5-oxadiazol-3-yl)-5-[(phenylthio)methyl]-1H-1,2,3-triazole-4-carboxylate] gave an EC50 of 14.7 µM.
`Nc1nc(NCCO)nc(NC2CCCCC2)c1[N+](=O)[O-]` [2-[[4-amino-6-(cyclohexylamino)-5-nitro-2-pyrimidinyl]amino]ethanol] gave an EC50 of 1.36 µM.
Compound `Cn1nnc2sc3c(c2c1=O)CCCC3` [MLS000557299] came in with a half-maximal effective concentration (EC50) of 23.3 µM.
As for `CN(C)c1nc(N)c([N+](=O)[O-])c(NCCO)n1`, the figure is above 300 µM; as for `Nc1nonc1-n1nnc(C(=O)NN=Cc2ccc(O)cc2)c1CN1CCCCCC1` [1-(4-azanyl-1,2,5-oxadiazol-3-yl)-5-(azepan-1-ylmethyl)-N'-[(4-oxidanylidenecyclohexa-2,5-dien-1-ylidene)methyl]-1,2,3-triazole-4-carbohydrazide], 1.85 µM.
For `COc1cc(C=NNC(=O)COc2ccccc2[N+](=O)[O-])ccc1OC(=O)c1ccco1` [SMR000204365], the EC50 is above 300 µM.
As to `COc1ccc(CN(CC(=O)NCc2ccccc2)C(=O)CCC(=O)Nc2cc(C)ccn2)cc1` [N-(Benzylcarbamoyl-methyl)-N-(4-methoxy-benzyl)-N'-(4-methyl-pyridin-2-yl)-succinamide], the concentration for a half-maximal effect (EC50) stood at 21.3 µM.
As for `O=[N+]([O-])c1cc(/C=N/n2cnnc2)ccc1N1CCCC1` [1-[3-nitro-4-(1-pyrrolidinyl)phenyl]-N-(1,2,4-triazol-4-yl)methanimine], the figure is above 300 µM.
`Oc1ccc(CN=Nc2ccc(C(F)(F)F)cn2)cc1O` [(4Z)-2-hydroxy-4-[[2-[5-(trifluoromethyl)pyridin-2-yl]hydrazinyl]methylidene]cyclohexa-2,5-dien-1-one] had a 50% effective concentration (EC50) of 16.1 µM. This lies in the double-digit micromolar range.
Turning to `CCn1c(=O)c(C(=O)NNC(=O)c2ccccc2)c(O)c2ccccc21`, the EC50 is above 300 µM.
As for `CCCCn1nc(NC(=O)CC)c2cc3cc(OC)ccc3nc21` [N-(1-butyl-6-methoxy-pyrazolo[3,4-b]quinolin-3-yl)propanamide], the figure is 43.6 µM; as for `CS(=O)(=O)N1CCN(c2cccc(Cl)n2)CC1` [MLS000594331], above 300 µM; as for `CCc1cc2c(s1)NC(=O)CN=C2c1cccs1`, 32.7 µM.
Consider `O=C(Nc1ccc(O)c2c(=O)cc(-c3ccccc3Cl)oc12)c1ccc(F)cc1` [N-[2-(2-chlorophenyl)-5-oxidanyl-4-oxidanylidene-chromen-8-yl]-4-fluoranyl-benzamide], for which the EC50 was 13.9 µM.
To `CCOc1ccc(-c2csc3[n+]2CC[N-]3)cc1[N+](=O)[O-]` belongs above 300 µM; to `CC(C(=O)NCC1CCCO1)n1cc([N+](=O)[O-])cn1` (centres undefined) [SMR000296777], above 300 µM.
`Cc1ccc(OCC(=O)NN=C2SCC(=O)N2Cc2ccccc2)cc1` [2-(4-methylphenoxy)-N-[[4-oxo-3-(phenylmethyl)-2-thiazolidinylidene]amino]acetamide] displayed a 50% effective concentration (EC50) above 300 µM.
In the case of `O=C1CN=C(c2ccccc2)c2c(sc3c2CCCC3)N1`, the half-maximal effective concentration (EC50) was 27.8 µM.
To `Cc1c([CH+][N-]NC(=O)COc2ccccc2[N+](=O)[O-])c2ccccc2n1C` [N-[(1,2-dimethylindol-3-yl)methylideneamino]-2-(2-nitrophenoxy)acetamide] belongs above 300 µM; to `Cc1oc2ccc(OC(=O)c3cccs3)cc2c1C(=O)OC(C)C` [2-Methyl-5-(thiophene-2-carbonyloxy)-benzofuran-3-carboxylic acid isopropyl ester], above 300 µM; to `O=C1NCCCc2c1oc1ccc(O)cc21` [7-hydroxy-2,3,4,5-tetrahydro-[1]benzofuro[2,3-c]azepin-1-one], 2.07 µM.
To `COc1cccc(N(CC(=O)NCC2CCCO2)C(=O)CCC(=O)Nc2nccs2)c1` (centres undefined) [N'-(3-methoxyphenyl)-N'-[2-oxo-2-(oxolan-2-ylmethylamino)ethyl]-N-(1,3-thiazol-2-yl)butanediamide] belongs above 300 µM.
As to `Cc1ccc2cc(NC(=O)c3cccc(F)c3)ccc2n1` [3-fluoro-N-(2-methyl-6-quinolinyl)benzamide], the half-maximal effective concentration (EC50) was above 300 µM.
Turning to `Cc1ccccc1-c1nc(CN2CCC(C(=O)N3CCN(c4ccccn4)CC3)CC2)c(C)o1` [[1-[[5-methyl-2-(2-methylphenyl)-4-oxazolyl]methyl]-4-piperidinyl]-[4-(2-pyridinyl)-1-piperazinyl]methanone], the concentration giving a half-maximal response (EC50) was above 300 µM.
Consider `N#Cc1c(-c2ccccc2)nc(SCC(=O)N(c2ccccc2)c2ccccc2)[nH]c1=O` [2-[(5-cyano-6-oxo-4-phenyl-1,6-dihydro-2-pyrimidinyl)thio]-N,N-diphenylacetamide], for which the concentration for a half-maximal effect (EC50) was above 300 µM.
To `CNC(=O)NC(=O)CSc1nc2ccccc2n1CCOC` [2-[1-(2-methoxyethyl)benzimidazol-2-yl]sulfanyl-N-(methylcarbamoyl)ethanamide] belongs above 300 µM; to `COc1cc([CH+][N-]NC(=O)COc2ccc([N+](=O)[O-])cc2)ccc1OCC(=O)N1CCOCC1` [N-[[3-methoxy-4-[2-(4-morpholinyl)-2-oxoethoxy]phenyl]methylideneamino]-2-(4-nitrophenoxy)acetamide], above 300 µM.
To `N#CC(=Cc1c[nH]nc1-c1ccc(Br)cc1)C(=O)O` [(Z)-3-[5-(4-bromophenyl)-1H-pyrazol-4-yl]-2-cyanoprop-2-enoic acid] belongs above 300 µM.
In turn, `CN(Cc1ccccc1)S(=O)(=O)c1ccc2c(c1)NC(=O)CC(=O)N2` [N-benzyl-N-methyl-2,4-dioxo-1,5-dihydro-1,5-benzodiazepine-7-sulfonamide] gave an EC50 above 300 µM.
To `Oc1ccc(N2CCN(C(=S)NCCc3ccccc3)CC2)cc1` [SMR000199335] belongs above 300 µM.
As for `COc1cccc(C2C(C(=O)OCc3ccccc3)C(C)=Nc3ncnn32)c1OC` (centres undefined) [(phenylmethyl) 7-(2,3-dimethoxyphenyl)-5-methyl-1,7-dihydro-[1,2,4]triazolo[1,5-a]pyrimidine-6-carboxylate], a half-maximal effect (EC50) was put at 3.82 µM.
In the case of `COC(=O)C1=C(C)N(CCCC(=O)O)C(=O)NC1c1ccc([N+](=O)[O-])cc1` (centres undefined) [MLS000562939], the EC50 is above 300 µM.
As for `Nc1nc(N)nc(-c2cc(Cl)ccc2Cl)n1` [SMR000471621], the figure is above 300 µM.
`O=C(NC(Cc1ccccc1)c1ccc2c(c1)OCCCO2)c1ccccc1` (centres undefined) returned a half-maximal effective concentration (EC50) above 300 µM.
To `Cc1ccc(S(=O)(=O)NCC(=O)N(CCc2ccccc2)CC(=O)NCc2ccco2)cc1` [N-[2-(furan-2-ylmethylamino)-2-oxoethyl]-2-[(4-methylphenyl)sulfonylamino]-N-(2-phenylethyl)acetamide] belongs above 300 µM; to `CC(C)N(C(=O)Cc1ccccc1[N+](=O)[O-])C(C)C` [SMR000291889], above 300 µM.
To `CCSc1ccc2nnc(-c3cccc(F)c3)n2n1` [6-(ethylthio)-3-(3-fluorophenyl)-[1,2,4]triazolo[4,3-b]pyridazine] belongs 18.7 µM; to `CN1/C(=C/C=C(/C#N)C(N)=O)C(C)(C)c2ccccc21` [(Z,4E)-2-cyano-4-(1,3,3-trimethyl-2-indolylidene)-2-butenamide], 15.5 µM.
As for `CC(=O)NCC1COc2ccccc2O1` (centres undefined) [N-(2,3-dihydro-1,4-benzodioxin-3-ylmethyl)ethanamide], the figure is above 300 µM; as for `N#Cc1c(O)nc(-c2ccncc2)nc1-c1ccccc1` [4-oxidanylidene-6-phenyl-2-pyridin-4-yl-1H-pyrimidine-5-carbonitrile], above 300 µM.
Take `COc1cc([CH-]N=[O+]C)ccc1Oc1ccc([N+](=O)[O-])cc1[N+](=O)[O-]` [MLS000699890]: the EC50 was above 300 µM.
Turning to `Cc1cccc(C(=O)NC2CC3CCCC(C2)N3Cc2ccccc2)c1` (centres undefined) [MLS001212730], the EC50 was above 300 µM.
As for `COc1ccc2nc(Cl)cc(Cl)c2c1` [SMR000430028], the figure is above 300 µM.
To `CC(=O)N(\C=C/C=C/C=C1\Sc2ccccc2C1=O)c1ccccc1` [N-[(1Z,3E,5Z)-5-(3-oxo-1-benzothien-2(3H)-ylidene)penta-1,3-dienyl]-N-phenylacetamide] belongs above 300 µM; to `CC(=O)N1CCc2c(sc(NC(=O)CS(=O)(=O)c3ccc(F)cc3)c2C(N)=O)C1` [SMR000808580], above 300 µM; to `CS(=O)(=O)c1ccccc1-c1nnc(NC(=O)c2ccc3ncsc3c2)o1`, above 300 µM.
The compound `COc1ccccc1CNC(=O)OCc1nccnc1C(=O)Nc1ccc(Br)cn1` [[3-[(5-bromopyridin-2-yl)carbamoyl]pyrazin-2-yl]methyl N-[(2-methoxyphenyl)methyl]carbamate] registered an EC50 above 300 µM.
Turning to `CC(=O)COc1cc(C)cc2oc(=O)cc(-c3ccccc3)c12`, the EC50 is above 300 µM.
`CCN(CC)Cc1c(C(=O)NN=Cc2c(Cl)cccc2Cl)nnn1-c1nonc1N` [SMR000620609] came in with an EC50 above 300 µM.
Turning to `COC(=O)c1ccc(-n2c(O)cc(N3CCN(C(=O)c4ccco4)CC3)c2O)cc1` [MLS000027707], the EC50 was above 300 µM.
As to `COc1ccc2nc3c(cc2c1)c(NC(=O)CC(C)C)nn3CC(C)C` [N-[6-methoxy-1-(2-methylpropyl)-3-pyrazolo[3,4-b]quinolinyl]-3-methylbutanamide], the EC50 was above 300 µM.
The compound `CC(=O)N1CCc2c(sc(NC(=O)Cc3ccccc3)c2C(N)=O)C1` [MLS000879211] returned a half-maximal effective concentration (EC50) of 24.4 µM.
The compound `Cc1ccc(Nc2nc(N)c([N+](=O)[O-])c(NCc3ccco3)n2)cc1` had an EC50 of 9.2 µM.
As for `Cc1nc(NCCCn2ccnc2)c2oc3ccccc3c2n1` [MLS000082652], the figure is above 300 µM; as for `COc1ccc(OC)c(C(=O)c2coc3ccc(OC(C)=O)cc23)c1` [3-(2,5-dimethoxybenzoyl)-1-benzofuran-5-yl acetate], above 300 µM; as for `COc1ccc(-c2nn(CCC#N)cc2CN=O)cc1`, 86.3 µM.
As to `CCOc1ccccc1CNC(=O)CCn1ccc2cc(S(=O)(=O)N3CCCCC3)ccc21` [SMR000629632], the concentration giving a half-maximal response (EC50) was above 300 µM.
To `NNC(=O)CNC(=O)c1ccc(F)cc1` belongs above 300 µM.
